Laboratory results taken from PMC6956230, “Sequence Determinants of Substrate Ambiguity in a HAD Phosphosugar Phosphatase of Arabidopsis Thaliana” (Biology, 2019).

Key:
AtSgpp (MBP-AtSgpp) [1] = biological target: T1, AtSgpp (MBP-AtSgpp) (Arabidopsis thaliana, UniProt Q9ZVJ5); test: phosphate release, molybdate/ascorbic acid assay, Lineweaver-Burk; type: biochemical; conditions: 20 mM Tris-HCl pH 7.0, 5 mM MgCl2, 32 °C, MBP fusion, brackets: 95% CI and [SD]
T1 construct: gene SGPP; full-length coding region (735 bp EcoRI/SalI fragment) in pMAL-c2x; N-terminal MBP fusion kept, vector residues Ile-Ser-Glu-Phe before Met1; expressed in E. coli TB1 with pSBETa; amylose resin
T1 sequence (Q9ZVJ5 1-244): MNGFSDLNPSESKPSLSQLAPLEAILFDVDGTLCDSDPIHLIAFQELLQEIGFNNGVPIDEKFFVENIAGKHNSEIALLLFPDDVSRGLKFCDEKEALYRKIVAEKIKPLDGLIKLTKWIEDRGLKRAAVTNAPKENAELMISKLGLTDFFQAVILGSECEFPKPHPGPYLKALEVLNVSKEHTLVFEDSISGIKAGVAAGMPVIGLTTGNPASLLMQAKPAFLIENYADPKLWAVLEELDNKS
Description: (§1) phosphate release, molybdate/ascorbic acid assay, Lineweaver-Burk on AtSgpp (MBP-AtSgpp)

AtSgpp (MBP-AtSgpp) [2] = biological target: T2, AtSgpp (MBP-AtSgpp) (Arabidopsis thaliana, UniProt Q9ZVJ5, DEL53-55); test: as above; type: biochemical; conditions: 20 mM Tris-HCl pH 7.0, 5 mM MgCl2, 32 °C, MBP fusion, brackets: 95% CI and [SD]
T2 construct: gene SGPP; full-length coding region (735 bp EcoRI/SalI fragment) in pMAL-c2x; N-terminal MBP fusion kept, vector residues Ile-Ser-Glu-Phe before Met1; expressed in E. coli TB1 with pSBETa; amylose resin
T2 sequence (Q9ZVJ5 with tags, fused parts or gaps DEL53-55): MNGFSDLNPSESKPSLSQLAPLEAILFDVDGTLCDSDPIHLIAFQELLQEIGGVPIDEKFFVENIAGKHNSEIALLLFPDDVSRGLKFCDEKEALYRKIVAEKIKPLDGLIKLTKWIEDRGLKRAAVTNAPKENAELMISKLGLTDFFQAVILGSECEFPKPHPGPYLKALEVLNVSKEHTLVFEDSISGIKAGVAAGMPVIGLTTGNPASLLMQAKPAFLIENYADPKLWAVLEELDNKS
Description: as §1

| apparent Km (AtSgpp (MBP-AtSgpp) [1]) | apparent Km (AtSgpp (MBP-AtSgpp) [2]) | Compound |
| --- | --- | --- |
| 7.1 (6.8–7.4) × 10^−3 [0.3] M | 8.3 (8–8.6) × 10^−3 [0.3] M | O=P(O)(O)OC[C@H]1OC(O)[C@H](O)[C@@H](O)[C@@H]1O (stereo partly drawn) [D-glucose-6-phosphate] |
| 4.9 (4.2–5.6) × 10^−3 [0.6] M | 6.7 (6.6–6.8) × 10^−3 [0.1] M | O=P(O)(O)OC[C@H]1OC(O)[C@@H](O)[C@@H](O)[C@@H]1O (stereo partly drawn) [D-mannose-6-phosphate] |

The next lines start with the molecule.

| Compound | apparent Km (AtSgpp (MBP-AtSgpp) [1]) | apparent Km (AtSgpp (MBP-AtSgpp) [2]) |
| --- | --- | --- |
| O=P(O)(O)OCC(O)CO (racemic) [DL-glycerol-3-phosphate] | 7.3 (7.1–7.5) × 10^−3 [0.2] M | 14 (13.7–14.3) × 10^−3 [0.3] M |
| O=P(O)(O)OC[C@H]1OC(O)C[C@@H](O)[C@@H]1O (stereo partly drawn) [2-deoxy-D-glucose-6-phosphate] | 4.6 (4–5.2) × 10^−3 [0.5] M | 4.7 (4.5–4.9) × 10^−3 [0.2] M |
| O=P(O)(O)OC[C@H]1OC(O)(CO)[C@@H](O)[C@@H]1O (stereo partly drawn) [D-fructose-6-phosphate] | 7.7 (7.3–8.1) × 10^−3 [0.4] M | 10 (9.5–10.5) × 10^−3 [0.4] M |
| O=P(O)(O)OC[C@H]1OC(O)[C@H](O)[C@@H]1O (stereo partly drawn) [D-ribose-5-phosphate] | 3.6 (3.5–3.7) × 10^−3 [0.1] M | 3.7 (3.5–3.9) × 10^−3 [0.2] M |
